Measured values from patent publication US9034874B2, “Carbamate/urea derivatives” (NOVARTIS AG, priority 2012, dated 2015).

Assays:
[1] = biological target: human H3 receptors (Homo sapiens (Human), UniProt Q9Y5N1); experiment: Affinity assessment: displacement of [3H]-N-α-Methylhistamine binding to membranes; conditions: membranes containing human H3 receptors, radioligand [3H]-N-α-Methylhistamine
Method: The affinity of compounds of the invention to the H3 receptor can be assessed by measuring displacement of binding of the radioligand [3H]-N-α-Methylhistamine (PerkinElmer, #NET1027250UC) to membranes containing human H3 receptors (PerkinElmer, #ES-392-M400UA; GenBank: NM_007232.2; Hill S J et al, International Union of Pharmacology XIII. Classification of histamine receptors, Pharmacol Rev, 49(3), 253-278, 1997).
2. Compound serial dilution: Dilution was performed by BioTek Precision on compound dilution plate. Compound concentrations start at 5 or 10 μM, 10 point dose titrations with 3- or 5-fold serial dilutions.
3. Preparation of 2× membrane solution (25 ml): 1.25 ml human Histamine H3 receptor stock, 23.75 ml assay buffer.
4. Preparation of 2× solution of [3H]-N-α-methylhistamine (25 ml): 4.27 μl [3H]-N-α-methylhistamine stock, 25 ml assay buffer.
5. Assemble binding reaction: (a) transfer 1 μl of compound solution, 1 μl 100% DMSO and 1 μl 1 M (R)(−)-α-Methylhistamine (Sigma, #H128) to the reaction plate at room temperature, (b) transfer 50 μl of 2× protein solution to reaction plate, (c) transfer 49 μl of 2× radioligand solution to reaction plate (Corning® 96 well EIA/RIA plate; Sigma, #CLS3797).
6. Cover the reaction plate with a TopSeal™-A film (Perkin Elmer, #6005185) and incubate at 28° C. for 120 min. Equilibrate Zeba Spin Desalting Plates (Thermo Scientific, #89808) to room temperature for 120 min.
7. Remove the sealing material from the bottom of the filtration plate. Place the plate on a wash plate. Centrifuge at 1000 g for 2 min to remove the storage buffer at room temperature.
8. Transfer 70 μl binding reaction from reaction plate into filtration plates. Place the filtration plates on top of collection plate. Centrifuge the plate assembly at 1000 g for 2 min to collect the protein with bound radioligand. Add 200 μl of Microscint-40 (PerkinElmer, #6013641-1L) to each well of the collection plate. Cover the plates with TopSeal™-A film.
9. Read the plates on Wallac Microbeta Trilux 2450, Instrument settings: counting mode: CPM, counting time: 2 min.
10. Data analysis: GraphPad Prism: log (compound concentration) vs. response; variable slope. The Ki is calculated based on Chang and Prusoff: Ki=IC50/{1+([radioligand]/Kd)}

[2] = tested on: wakefulness in rats; experiment: Effects on wakefulness (EEG/EMG recordings); type: in vivo, rat; conditions: oral, first 4 hours after administration
Method: Animals: Male Sprague-Dawly rats (280-320 g) were housed individually under an ambient temperature of 22±0.5° C. with a relative humidity of 60±2% and an automatically controlled 12-h light/12-h dark cycle (light on at 07:00, illumination intensity 100 lux). The animals had free access to food and water.
EEG recording set up, Polygraphic Recordings and Vigilance State Analysis: Under pentobarbital anesthesia (50 mg/kg, i.p.), rats were chronically implanted with EEG and electromyogram (EMG) electrodes for polysomnographic recordings (Huang et al, J Neurosci, 23, 5975-5983, 2003). Two stainless steel screws (1 mm in diameter) EEG electrodes (the first screw: anteroposterior (AP), +2 mm; left-right (LR), −2 mm; and the second: AP, −2 mm; LR, −2 mm, AP from bregma, LR from lambda) and a reference electrode (opposite to EEG screw side, AP, +3 mm; LR, 3 mm) were surgically implanted and 3 stainless steel screws for anchorage to the skull. Two insulated stainless steel, Teflon-coated wires were bilaterally placed into both trapezius muscles and served as EMG electrodes for rats. All electrodes were attached to a micro connector and fixed to the skull with dental cement. […]
For the study of spontaneous sleep-wakefulness cycles, each animal was recorded for 24 h beginning at 19:00 P.M., the offset of the light period. The animals then entered the pharmacological phase of the study, in which sleep-wakefulness parameters were recorded for 72 h. […]
Cortical EEG and EMG signals were amplified, filtered (EEG, 0.5-30 Hz; EMG, 20-200 Hz), digitized at a sampling rate of 128 Hz, and recorded by using SLEEPSIGN (Kissei Comtec, Nagano, Japan). When complete, polygraphic recordings were automatically scored offline by 4-sec epochs as wake, REM, and NREM sleep by SleepSign according to standard criteria (Huang et al, Nat Neurosci, 8, 858-859, 2005). […]
Time-course changes in the amounts of sleep-wake, sleep/wake stage transition number, as well as number and duration of sleep/wake bouts in light/dark phases, were analyzed by the paired t test, with each animal serving as its own control. […]

human H3 receptors, sequence (Q9Y5N1 whole entry): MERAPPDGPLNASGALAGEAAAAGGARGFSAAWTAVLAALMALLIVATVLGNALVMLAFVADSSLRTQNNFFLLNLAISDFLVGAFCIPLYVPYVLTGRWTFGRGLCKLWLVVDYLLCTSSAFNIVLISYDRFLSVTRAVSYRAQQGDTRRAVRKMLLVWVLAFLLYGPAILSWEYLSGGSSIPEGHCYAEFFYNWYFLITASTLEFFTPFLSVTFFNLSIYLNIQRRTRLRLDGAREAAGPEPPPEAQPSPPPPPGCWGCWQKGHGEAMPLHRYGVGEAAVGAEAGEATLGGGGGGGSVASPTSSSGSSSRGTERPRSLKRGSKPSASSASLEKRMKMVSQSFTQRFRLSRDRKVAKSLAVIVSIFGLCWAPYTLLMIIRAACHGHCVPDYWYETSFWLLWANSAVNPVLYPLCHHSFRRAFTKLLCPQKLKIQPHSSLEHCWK

Ki [1] [nM]	Compound	% increase in wakefulness at 10 mg [2] [%]
26	O=C(OC1CCN(c2ccc(=O)[nH]n2)CC1)N1CCN(C2CCC2)CC1 [Example 1.1, 1-(6-oxo-1,6-dihydropyridazin-3-yl)piperidin-4-yl 4-cyclobutylpiperazine-1-carboxylate]	42.1
31	CC(C)N1CCN(C(=O)OC2CCN(c3ccc(=O)n(C)n3)CC2)CC1 [Example 1.2, 1-(1-methyl-6-oxo-1,6-dihydropyridazin-3-yl)piperidin-4-yl 4-isopropylpiperazine-1-carboxylate]	48.8
10	CC(C)N1CCN(C(=O)OC2CCN(c3ccc(=O)[nH]n3)CC2)CC1 [Example 1.3, 1-(6-oxo-1,6-dihydropyridazin-3-yl)piperidin-4-yl 4-isopropylpiperazine-1-carboxylate]	19.1
